Measured values from patent US20230391868A1, “COMPOSITIONS FOR AND METHODS OF TREATING CANCER” (The George Washington University, priority 2022, published 2023).

How the values were obtained:
[1] = tested on: A31A7 macrophages and BMDMs; assay: Macrophage cell surface marker expression by flow cytometry; type: cell-based, mouse
Method: (§1) Bone marrow-derived macrophages were isolated from the femurs and tibias of wild-type C57/Bl6, HDAC6 knockout (C57BL/6J-Hdac6em2Lutzy/J, 029318, Jackson Laboratory), or UBC-GFP (C57BL/6-Tg(UBC-GFP)30Scha/J, 004353, Jackson Laboratory). Isolated bone marrow cells were cultured in RPMI 1640 complete medium with 10% FBS, 1% NEAA, and 1% penicillin-streptomycin in 5% CO2 at 37° C. Medium was supplemented with murine recombinant M-CSF (20 ng/mL, 576404, Biolegend) to differentiate monocytes into macrophages. Three days after bone marrow isolation, undifferentiated and floating cells were washed with PBS and replaced with fresh RPMI media. A3.1A7 cells and BMDMs were pretreated with 5 μM of HDAC6 inhibitor NextA or vehicle prior to adding polarizing cytokines.
Macrophages were polarized to M1-like phenotype using 50 ng/mL of interferon gamma (IFNγ, 575306, Biolegend) and 100 ng/mL of bacterial lipopolysaccharide (LPS, L2880, Sigma Aldrich, St. Louis, MO) for 24 hours. To polarize macrophages towards the M2-like phenotype, macrophages were stimulated with 20 ng/mL of IL-4 (214-14, PeproTech) and 20 ng/mL of IL-13 (575904, Biolegend). THP1 monocytes were treated with 5 ng/mL of phorbol 12-myristate 13-acetate (PMA) to induce differentiation into macrophages. Once converted to macrophages, media was replaced to remove PMA prior to treatment and/or polarization. […]

primary mouse BMDMs = assay: Pro-phagocytic signal gene expression in BMDMs; type: cell-based
Method: as §1
qRT-PCR: Total RNA was extracted from cells using the Trizol reagent according to manufacturer's instructions (ThermoFisher Scientific, 15596018). Samples were then processed immediately or stored at −80° C. RNA was quantified using a NanoDrop One Spectrophotometer (ThermoFisher Scientific). The 260/280 ratios were routinely over 1.8. […] Target mRNA was quantified using MyIQ single-color real-time PCR detection system from Bio-Rad (Bio-Rad, Hercules, CA) and iQ SYBR green Supermix (Bio-Rad, 1708882). […] Quantification is expressed in arbitrary units and target mRNA levels were normalized to R-actin expression.

CCCCN(Cc1ccc(C(=O)NO)cc1)C(=O)Nc1ccccc1 [NextA, Nexturastat A] was tested. Which “cell surface expression of CD80 and H2” value ([1]; A31A7 and BMDMs polarized to M1-like phenotypes, 5 μM (FIG. 1B)) did it give?
The value was “upregulation”.

What about the CD206 surface expression ([1]; A31A7 cells and BMDMs, M2, 5 μM (FIG. 1D)) of the same molecule?
Its CD206 surface expression is “significantly downregulated”.

And the “expression of Lrp1, Cd36, and Mfge8” value (primary mouse BMDMs)?
Its value is “significant increase”.
